In US20180362456A1, “NEW COMPOUNDS WITH ANTIOXIDANT AND ANTIAGING ACTIVITY” (EMS S/A, priority 2015, published 2018):

Legend:
[1] = Neutral Red Uptake cytotoxicity test; type: cell-based; details: mouse, Balb3T3 cells
Experimental: (§1) The citotoxicity of compounds described in examples 1 and 2 was tested with the test Neutral Red Uptake to determine the IC50 values. To better define the cytotoxic potential also the lactate dehydrogenase (LDH) release was tested to verify the action on cell membrane permeability. Test were performed according to DB-ALM Protocol n L39Balb3T3 Red Uptake cytotoxicity and ISO 10993-5:2009.

Balb3T3 [2] = test: Lactate dehydrogenase (LDH) release, cell membrane permeability; type: cell-based; set-up: activity on cell membrane: dose or concentration left out as unconfirmed; details: for LDH release, % of total enzyme contained in the cells: 14 hours exposition
Experimental: as §1

free radicals [3] = test: Scavenger activity, DCA fluorimetric probe, UVA treatments; type: cell-based
Experimental: (§2) The antioxidant power of compounds described in examples 1 and 2 was tested in two different tests, one for the scavenger activity and one for the antioxidant activity. The method is based on the fluorimetric probe 2′,7′-dichlorofluorescein diacetate (DCA) that becomes fluorescent only when it is oxidized by free radicals.

free radicals [4] = test: Antioxidant activity, DCA fluorimetric probe, UVA treatments; type: cell-based
Experimental: as §2

[5] = In vitro skin permeation, static Franz diffusion cells (OECD 428); type: in vitro ADME; details: 1% solution, 5 mg/cm2 on human skin, 24 hours, unocclusive
Description: The in vitro skin permeation experiments were developed and validated according to the Organization for Economic Cooperation and Development adopted guideline 428 (OECD guideline for the testing of chemicals. Skin absorption: in vitro method. Guideline 428 (Paris, April 2004, updated January 2011)). Briefly, static Franz diffusion cells were set up with human skin samples according with OECD and SCSS guidelines. A simple formulation containing 1% of compound of example 1 in solution was applied topically on human skin samples (5 mg/cm2) for 24 hours in an unocclusive conditions. At the end of the exposure time the Franz diffusion cells were dismantled and the distribution of the compound was measured on the skin surface, in the stratum corneum and in the rector fluid. An extraction method was developed and the day after the extraction process, all the samples were filtered through 0.22 μm membrane filter into HPLC vials. The samples of compounds of example 1, together with known concentration standards were assayed by HPLC-UV (Waters, USA). The average amount measured in the dermis was 2% of applied dose and in the receptor fluid was 3% of the applied dose. Therefore, the calculated average dermal absorption for compound 1 was 5%.

Balb3T3 [6] = test: Neutral Red Uptake cytotoxicity test; type: cell-based
Experimental: as §1

Row | SMILES | IC50 [1] | activity on cell membrane (Balb3T3 [2]) | LDH release, % of total enzyme contained in the cells (Balb3T3 [2]; 0.2 mM) | LDH release, % of total enzyme contained in the cells (Balb3T3 [2]; 0.5 mM) | reduction of the formation of free radicals (scavenger activity), on average (free radicals [3]; 0.004 mM, after 5 treatments with UVA) | inhibition of free radical formation (antioxidant efficacy) (free radicals [4]; 0.1 mM effective dose, after 5 treatments UVA) | average amount measured in the dermis [5] | average amount measured in the receptor fluid [5] | calculated average dermal absorption [5] | overall biocompatibility (Balb3T3 [6]) | LDH release, % of total enzyme contained in the cells (Balb3T3 [2]; 1 mM) | reduction of free radical formation (scavenger action) (free radicals [3]; after first UVA treatment) | inhibition at 25 µM (free radicals [4]; 0.025 mM, read-out: inhibition of free radical formation (antioxidant activity))
1 | C=CCSCC(N)C(=O)Oc1ccc(/C=C/c2cc(OC(=O)C(N)CSCC=C)cc(OC(=O)C(N)CSCC=C)c2)cc1.Cl.Cl.Cl (stereo not drawn) [Example 1, (E)-1,1′-((5-(4-((3-(allylthio)-2-ammoniopropanoyl)oxy)styryl)-1,3-phenylene)bis(oxy))bis(3-(allylthio)-1-oxopropan-2-aminium) Chloride] | 113 µM | not highlighted a specific activity on cell membrane | 13.0% | 13.2% | 41% | more than 50% | 2 % of applied dose | 3 % of the applied dose | 5% | – | – | – | –
2 | C=CCSCC(NC(=O)C1CCC(=O)N1)C(=O)OC [Example 2, L-Pyroglutamyl-(R)-3-Allylsulfanyl-2-amino-propionic Acid Methyl Ester] | > 3000 µM | some slight activity on cell membrane | – | – | – | – | – | – | – | very biocompatible | 12.3% | 23.5% | 25.6%
